Source: patent US20220184220A1, “XYLOGLUCAN-CONTAINING PRODRUGS AND METHODS OF MANUFACTURE AND USE THEREOF” (priority 2019, published 2022)
“Also recorded” adds a separate entry of the source.

How the values were obtained:
[1] = molecular target: Bacteroides ovatus GH5 endo-xyloglucanase (Bacteroides ovatus, UniProt A7LXT7); assay: Hydrolysis of glyco-caged prodrugs by BoGH5A, copper-bicinchoninic acid (BCA) reducing-sugar assay; assay type: biochemical; conditions: sodium citrate buffer, pH 6.5
Description: DOI:10.1007/978-1-4939-6899-2 1.

[2] = tested on: acute self-limiting colitis in mice; assay: Histological scoring of inflammation, C. rodentium colitis in mice with normal enteric microbiota (Example 7); assay type: in vivo; conditions: for histological score, distal colon: CR+/BO+ mice, prednisolone forms 1 mg/kg, dexamethasone forms 1.5 mg/kg (equivalent), one day following steroid treatment; for efficacy compared with the uncaged drug, histologically: Example 7 conclusions; for colitis in the colon, histopathologically: colitis incited by Citrobacter rodentium, mice colonized by Bacteroides ovatus
Description: (§1) Approval to conduct this project was obtained from the AAFC LeRDC Animal Care Committee (Animal Use Protocol 1911). […] The methods employed were essentially the same as those described in Example 3, except that the Citrobacter rodentium (CR) was administered to incite acute self-limiting colitis in mice prior to colonization with Bacteroides ovatus (BO). […] FIG. 20 provides a schematic illustrating the study design and timelines.
(§2) As in the study described in Example 3, there were gross histopathological differences in the distal colon tissue obtained from mice in the different treatment groups. Histological scoring of inflammation was performed by a board-certified pathologist blinded to treatment. […] Following CR infection, with no treatment, neutrophil infiltration was evident and the histological score was 10. […] Evidence of enhanced amelioration of protein markers of inflammation were also observed. […] IL-12p70 is a pro-inflammatory cytokine involved in cell-mediated immunity. For example, it is known as a T cell-stimulating factor, which can stimulate the growth and function of T cells. Moreover, it stimulates the production of interferon-gamma (IFN-γ) and tumor necrosis factor-alpha (TNF-α) from T cells and natural killer (NK) cells, and reduces IL-4 mediated suppression of IFN-γ.

[3] = tested on: acute self-limiting colitis in mice; assay: Gross visual observations of the murine abdomen (Example 3); assay type: in vivo; conditions: necropsy after 3 days of steroid gavage
Description: Under isoflurane anesthesia, mice were terminally bled by cardiac puncture and then humanely euthanized by cervical dislocation. All collected blood was separated into serum that was dedicated for steroid detection and optimization of steroid detection procedures. Following euthanasia, a midline laparotomy was made and gross observations of the abdominal regions were photo-documented. Approximately 1 cm sections of the cecum, and the most proximal and distal portions of the colon were divided for histological examination. Cecal and colonic tissues were flash frozen in liquid nitrogen for future immunological protein quantification. Digesta extracted from the colon was stored at −80° C. for future steroid detection, and fresh feces from the cages were used to enumerate Bacteroides ovatus and Citrobacter rodentium by microbiological techniques on the same day as the necropsy.

[4] = tested on: IL-1β, IL-6, IL-22, TNF-α; assay: Tissue cytokine detection by ELISA in cecal and colonic homogenates (Example 3); assay type: in vivo, mice; conditions: for decreasing pro-inflammatory cytokines (IL-1β and TNF-α) and increasing IL-22 in intestinal tissues: compared with uncaged drugs
Description: Cecal and colonic homogenate for each mouse was prepared using the tissues suspended in an immunoprecipitation buffer at a ratio of 1:5 (wt/vol, adapted from Burgos-Ramos E. et al. 2012. “Adipose tissue promotes a serum cytokine profile related to lower insulin sensitivity after chronic central leptin infusion”. PLoS One Vol 7(10): e46893) with the addition of 1% Protease Inhibitor Cocktail (Sigma Aldrich). Frozen tissue sections were immediately homogenized using a Tissue-Tearor® model 398 homogenizer (Biospec Products) and centrifuged (14 000×g for 30 min at 4° C.). Supernatants were collected and used immediately for cytokine profiling. Cecal and colonic cytokine concentrations were measured for each treatment group by enzyme-linked immunosorbent assay (ELISA). Cytokines included in the analysis were interleukin-1 beta (IL-1β); IL-6; IL-10; IL-22; and tumour necrosis factor alpha (TNF-α). All cytokines were quantified using mouse DuoSet ELISA Development kits according to the manufacturer's protocols (R&D Systems). ELISAs were performed using 96-well high-binding half area microplates (Greiner Bio-One), and the optical density of the reactions were determined at wavelength of 450 nm on a Synergy HT™ multi-detection microplate reader (BioTek Instruments Inc.) with Gen5™ analysis software (BioTek Instruments Inc.).

[5] = tested on: acute self-limiting colitis in mice; assay: Histological scoring of inflammation, C. rodentium colitis in germ-free mice colonized with B. ovatus (Example 3); assay type: in vivo; conditions: for Crypt Height / Epithelia Hyperplasia / Epithelial Injury / Fibrosis / Globlet cell / Inflamm / Mitotic Act.: gavage 3 days, prednisolone forms 1 mg/kg/day, dexamethasone forms 0.6 mg/kg/day; for Crypt Height / Epithelia Hyperplasia / Epithelial Injury / Fibrosis / Globlet cell / Inflamm / Mitotic Act. / Total Score: n=2; for Total Score: sum of each scoring category; for acute inflammation in the proximal and distal colon, histopathologically / efficacy compared with the uncaged drug: gnotobiotic mice colonized by B. ovatus; for efficacy compared with the uncaged drug: Example 3 conclusions
[6] = tested on: interleukin-12p70 (IL-12p70); assay: Protein markers of inflammation in colonic tissue (Example 7); assay type: in vivo; conditions: infected female mice; compared to uncaged PRED or DEXA
Description: as §1, §2

[7] = cecal tissue homogenates, compared to the free steroids, n=2

Sequence of Bacteroides ovatus GH5 endo-xyloglucanase (A7LXT7 33-502): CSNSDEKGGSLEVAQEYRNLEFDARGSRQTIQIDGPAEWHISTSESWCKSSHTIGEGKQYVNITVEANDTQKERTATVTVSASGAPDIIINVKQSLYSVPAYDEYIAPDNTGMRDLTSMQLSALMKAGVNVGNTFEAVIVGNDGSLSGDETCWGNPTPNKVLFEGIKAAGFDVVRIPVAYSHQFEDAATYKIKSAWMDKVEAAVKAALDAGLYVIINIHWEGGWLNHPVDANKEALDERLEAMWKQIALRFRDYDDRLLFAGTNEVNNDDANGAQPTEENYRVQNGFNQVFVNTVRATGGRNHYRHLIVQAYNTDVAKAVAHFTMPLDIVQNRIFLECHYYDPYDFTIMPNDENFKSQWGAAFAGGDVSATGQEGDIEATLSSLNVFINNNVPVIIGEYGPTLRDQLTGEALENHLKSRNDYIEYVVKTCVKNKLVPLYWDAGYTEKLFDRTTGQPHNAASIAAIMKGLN

Row | Compound | hydrolysis of the prodrug (release of the active drug) [1] | histological score, distal colon [2] | Crypt Height ([5]; cecal tissue) | Epithelia Hyperplasia ([5]; cecal tissue) | Epithelial Injury ([5]; cecal tissue) | Fibrosis ([5]; cecal tissue) | Globlet cell ([5]; cecal tissue) | Inflamm ([5]; cecal tissue) | Mitotic Act. ([5]; cecal tissue) | Total Score ([5]; cecal tissue) | Crypt Height ([5]; distal colon) | Epithelia Hyperplasia ([5]; distal colon) | Epithelial Injury ([5]; distal colon) | Fibrosis ([5]; distal colon) | Globlet cell ([5]; distal colon) | Inflamm ([5]; distal colon) | Mitotic Act. ([5]; distal colon) | Total Score ([5]; distal colon) | Crypt Height ([5]; proximal colon) | Epithelia Hyperplasia ([5]; proximal colon) | other results
1 | COC(=O)c1cc(N)ccc1O[C@@H]1OC(CO)[C@@H](O[C@@H]2OC(CO[C@H]3OC[C@@H](O)C(O)C3O)[C@@H](O[C@@H]3OC(CO[C@H]4OC[C@@H](O)C(O)C4O)[C@@H](O[C@@H]4OC(CO[C@H]5OC[C@@H](O)C(O)C5O)[C@@H](O)C(O)C4O)C(O)C3O)C(O)C2O)C(O)C1O (stereo partly drawn) [XXXG-5ASAME, XXXG-β-O-mesalazineME] | demonstrated | – | – | – | – | – | – | – | – | – | – | – | – | – | – | – | – | – | – | – | –
2 | C[C@]12C=CC(=O)C=C1CC[C@@H]1[C@@H]2[C@@H](O)C[C@@]2(C)[C@H]1CC[C@]2(O)C(=O)CO[C@@H]1OC(CO)[C@@H](O[C@@H]2OC(CO[C@H]3OC[C@@H](O)C(O)C3O)[C@@H](O[C@@H]3OC(CO[C@H]4OC[C@@H](O)C(O)C4O)[C@@H](O[C@@H]4OC(CO[C@H]5OC[C@@H](O)C(O)C5O)[C@@H](O)C(O)C4O)C(O)C3O)C(O)C2O)C(O)C1O (stereo partly drawn) [XXXG-PRED, XXXG-β-O-prednisolone] | demonstrated | 4 | 2 | 2 | 1.5 | 0.5 | 0 | 2.5 | 1.5 | 10 | 1.5 | 1.5 | 1 | 0 | 0.5 | 1 | 1 | 6.5 | 2 | 3 | efficacy compared with the uncaged drug, histologically [2]: greater efficacy than uncaged prednisolone histologically; colitis in the colon, histopathologically [2]: ameliorate colitis; blood present in ceca (gross observation) [3]: more blood present in ceca than dexamethasone treatment; also recorded: more blood in cecal area; IL-1β concentration in cecal tissue [4, 7]: decreased; TNF-α concentration in cecal tissue [4, 7]: decreased; IL-22 concentration in cecal tissue ([4]; cecal tissue homogenates, n=2): increased; decreasing pro-inflammatory cytokines (IL-1β and TNF-α) and increasing IL-22 in intestinal tissues [4]: more effective than the uncaged drugs; caged drugs compared in the distal colon ([5]; distal colon): equal scores; acute inflammation in the proximal and distal colon, histopathologically [5]: ameliorate acute inflammation; efficacy compared with the uncaged drug [5]: greater efficacy than uncaged prednisolone; injury and inflammation intensities, distal colon ([5]; histologic examination): lessened the injury and inflammation intensities; Epithelial Injury ([5]; proximal colon): 2.5; Fibrosis ([5]; proximal colon): 0; Globlet cell ([5]; proximal colon): 0.5; Inflamm ([5]; proximal colon): 2; Mitotic Act. ([5]; proximal colon): 1.5; Total Score ([5]; proximal colon): 11.5; quantities of interleukin-12p70 (IL-12p70) protein in colonic tissue [6]: significantly lower
3 | C[C@@H]1C[C@H]2[C@@H]3CCC4=CC(=O)C=C[C@]4(C)[C@@]3(F)[C@@H](O)C[C@]2(C)[C@@]1(O)C(=O)CO [dexamethasone, reference compound] | – | 17 | 1 | 1 | 0.5 | 0 | 0 | 2 | 1.5 | 6 | 2 | 1.5 | 1 | 1 | 1.5 | 1.5 | 1 | 9.5 | 3 | 3 | Epithelial Injury ([5]; proximal colon): 2; Fibrosis ([5]; proximal colon): 0; Globlet cell ([5]; proximal colon): 0; Inflamm ([5]; proximal colon): 1.5; Mitotic Act. ([5]; proximal colon): 1.5; Total Score ([5]; proximal colon): 11
4 | C[C@@H]1C[C@H]2[C@@H]3CCC4=CC(=O)C=C[C@]4(C)[C@@]3(F)[C@@H](O)C[C@]2(C)[C@@]1(O)C(=O)CO[C@@H]1OC(CO)[C@@H](O[C@@H]2OC(CO[C@H]3OC[C@@H](O)C(O)C3O)[C@@H](O[C@@H]3OC(CO[C@H]4OC[C@@H](O)C(O)C4O)[C@@H](O[C@@H]4OC(CO[C@H]5OC[C@@H](O)C(O)C5O)[C@@H](O)C(O)C4O)C(O)C3O)C(O)C2O)C(O)C1O (stereo partly drawn) [XXXG-DEXA, XXXG-β-O-dexamethasone] | demonstrated | 2 | 1 | 1 | 1 | 1.5 | 0.5 | 2 | 1.5 | 8.5 | 1.5 | 1.5 | 1 | 0 | 0 | 1 | 1 | 6 | 2 | 1.5 | efficacy compared with the uncaged drug, histologically [2]: greater efficacy than uncaged dexamethasone histologically; colitis in the colon, histopathologically [2]: ameliorate colitis; cecal and colonic thickening (gross observation) [3]: less cecal and colonic thickening than uncaged dexamethasone; IL-1β concentration in cecal tissue [4, 7]: decreased; TNF-α concentration in cecal tissue [4, 7]: decreased; decrease of IL-6 concentration in cecal tissue [4, 7]: more effective than XXXG-PRED; decreasing pro-inflammatory cytokines (IL-1β and TNF-α) and increasing IL-22 in intestinal tissues [4]: more effective than the uncaged drugs; amelioration of colitis in the cecum and proximal colon, caged drugs compared ([5]; colitis incited by Citrobacter rodentium): more effective than XXXG-PRED; caged drugs compared in the distal colon ([5]; distal colon): equal scores; acute inflammation in the proximal and distal colon, histopathologically [5]: ameliorate acute inflammation; efficacy compared with the uncaged drug [5]: greater efficacy than uncaged dexamethasone; injury and inflammation intensities, distal colon ([5]; histologic examination): lessened the injury and inflammation intensities; injury and inflammation intensity, ceca and proximal colon tissues ([5]; histologic examination): less injury and inflammation intensity than the other treatments; Epithelial Injury ([5]; proximal colon): 2; Fibrosis ([5]; proximal colon): 0; Globlet cell ([5]; proximal colon): 0; Inflamm ([5]; proximal colon): 1; Mitotic Act. ([5]; proximal colon): 1.5; Total Score ([5]; proximal colon): 8; quantities of interleukin-12p70 (IL-12p70) protein in colonic tissue [6]: significantly lower
